Seven compounds from patent publication US20210330611A1, “THERAPY FOR NEUROLOGICAL DISEASES/DISORDERS” (priority 2020, published 2021) can be followed below.

Series [1] relates to fibrin-induced microglia activation. As to the kind of experiment: Image-based assay of fibrin-induced microglia activation (HTS and dose response). The settings on record: for IC50 / inhibition at 10 µM: Rattus norvegicus, Microglia; for inhibition at 10 µM: primary microglia HTS, fibrin stimulation, increased cell size (>800 μm^2) as marker of activation, read-out: Fibrin % inhibition. The class given is cell-based, rat.

Series [2] has as its system LPS-induced microglia activation. The series can be described thus: Image-based assay of LPS-induced microglia activation (HTS and dose response). It counts as cell-based, rat. Particulars: Rattus norvegicus, Microglia; for inhibition at 10 µM: primary microglia HTS, LPS stimulation, increased cell size (>800 μm^2) as marker of activation, read-out: LPS % inhibition.
Series [3] in a line: in vitro. Particulars: rat.
Series [4] concerns primary rat microglia. The series can be described thus: Cell toxicity (dead cells, size <150 μm2) in coated fibrin (cFib) assay.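 On Fibrin % cell toxicity: share of dead cells sized under 150 µm2 at 10 µM in fibrin-stimulated microglia HTS.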 Particulars: primary microglia HTS, fibrin stimulation; decreased size (<150 μm^2) as marker of toxicity.
The subject of series [5] is fibrin- and LPS-induced microglia activation. The series can be described thus: cells. It counts as cell-based, rat. Particulars: for inhibition at 10 µM: Rattus norvegicus.
In series [6] the test system is primary rat microglia. The series can be described thus: Cell toxicity (dead cells, size <150 μm2) in LPS assay. The settings on record: for LPS % cell toxicity: primary microglia HTS, LPS stimulation, decreased size (<150 μm^2) as marker of toxicity; for IC50: read-out: Cell Toxicity IC50 (uM) [LPS assay], LPS assay.
Series [7] can be described thus: in vitro. Particulars: rat, Cell Toxicity IC50 (uM) [cFib assay].
Setting [8] is: 48 h, Table 1, dose response 0.001-20 μM, triplicates, primary rat microglia, 48 h, read-out: Fibrin IC50.
The mark [9] stands for this setting: dose response, fibrin-induced microglia activation, read-out: Fibrin IC50.
Where [10] appears, read: fibrin-induced microglia activation, dose response, read-out: Fibrin IC50 (uM) (Suppl. Table 7).
Where [11] appears, read: 48 h, Table 1, dose response 0.001-20 μM, triplicates, primary rat microglia, 48 h, read-out: LPS IC50.
[12] abbreviates: LPS-induced microglia activation, dose response, read-out: LPS IC50 (uM) (Suppl. Table 7).
Where [13] appears, read: dose response, LPS-induced microglia activation, read-out: LPS IC50.
Setting [14] is: HTS of 1907 compounds, quadrant by fibrin and LPS inhibition.
The mark [15] stands for this setting: Microglia, HTS hit classification, read-out: Hit.
The mark [16] stands for this setting: hit classification in microglia HTS, read-out: Cherry-picked Hit (Suppl. Table 7).
[17] abbreviates: quadrant by fibrin and LPS inhibition in HTS of 1907 compounds.
Where [18] appears, read: Table 3, read-out: Fibrin IC50 (uM) (Suppl. Table 7).
The mark [19] stands for this setting: Table 3, read-out: LPS IC50 (uM) (Suppl. Table 7).
The mark [20] stands for this setting: Microglia, Table 3, read-out: Cherry-picked Hit (Suppl. Table 7).

Broadly, the IC50 is the point on the concentration scale where inhibition reaches its midpoint.

Read-outs that look alike come from different tables or passages of the source.

Take `CN(C)CCc1c[nH]c2ccc(CS(=O)(=O)N3CCCC3)cc12` [Almotriptan, reference compound]: the IC50 in series [1] (setting [8]), in series [1] (setting [9]), in series [1] (setting [10]), in series [2] (setting [11]), in series [2] (setting [12]) and in series [2] (setting [13]) was more than 20 µM in each case. For the same compound, the IC50 in the series “in vitro [3]” and in “in vitro [7]” (cFib assay) was more than 20 µM each time. Also, the inhibition at 10 µM in series [1] is 101%; in series [2] (48 h), 85%; in series [5] (setting [15]), more than 50%; in series [5] (setting [16]), more than 50%. In addition, the “Fibrin % cell toxicity” value with primary rat microglia [4] stood at 2%. Besides, the “Quadrant (FIG. 5b)” value in series [5] (setting [14]) was “Q2”; in series [5] (Table 1, screen at 10 μM), “Q2”; in series [5] (setting [17]), “Q2”. For the same compound, the “LPS % cell toxicity” value with primary rat microglia [6] is 1%.

Consider `COc1c(C)c2c(c(O)c1C/C=C(\C)CCC(=O)OCCN1CCOCC1)C(=O)OC2` [Mycophenolate mofetil, reference compound], for which the IC50 came out at 2 µM in series [1] (setting [8]); 2 µM in series [1] (setting [9]); 2 µM in series [1] (setting [10]); 1 µM in series [2] (setting [11]); 1 µM in series [2] (setting [12]); 1 µM in series [2] (setting [13]). The IC50 in “in vitro [3]” and in “in vitro [7]” (cFib assay) was more than 20 µM in each case. Also, the inhibition at 10 µM in series [1] was 94%; in series [2] (48 h), 79%; in series [5] (setting [15]), more than 50%; in series [5] (setting [16]), more than 50%. In addition, the “Fibrin % cell toxicity” value with primary rat microglia [4] is recorded as 2%. Also, the “Quadrant (FIG. 5b)” value in series [5] (setting [14]) is recorded as “Q2”; in series [5] (Table 1, screen at 10 μM), “Q2”; in series [5] (setting [17]) it was “Q2”. Besides, the “LPS % cell toxicity” value in the series with primary rat microglia [6] was determined as 2%.

With `O=P(O)(O)C(O)(Cc1cccnc1)P(=O)(O)O` [Risedronate sodium, reference compound], the IC50 was 19 µM in series [1] (setting [8]); 19 µM in series [1] (setting [9]); 19 µM in series [1] (setting [10]); more than 20 µM in series [2] (setting [11]); more than 20 µM in series [2] (setting [12]); more than 20 µM in series [2] (setting [13]). For the same compound, the IC50 in “in vitro [3]” and in the series “in vitro [7]” (cFib assay) was more than 20 µM throughout. The inhibition at 10 µM is 81% in series [1], 16% in series [2] (48 h), more than 50% in series [5] (setting [15]) and more than 50% in series [5] (setting [16]). The “Fibrin % cell toxicity” value with primary rat microglia [4] was determined as 2%. Moreover, the “Quadrant (FIG. 5b)” value in series [5] (setting [14]) is given as “Q3”; in series [5] (Table 1, screen at 10 μM), “Q3”; in series [5] (setting [17]), “Q3”. The “LPS % cell toxicity” value with primary rat microglia [6] is recorded as 0%.

For `CCCCC(=O)O[C@]1(C(=O)CO)CC[C@H]2[C@@H]3CCC4=CC(=O)CC[C@]4(C)[C@H]3[C@@H](O)C[C@@]21C` [Hydrocortisone valerate, reference compound], the “Fibrin Selectivity” value in series [1] was found to be 28. The “Fibrin Selectivity (LOG10)” value in series [1] is reported as 1.45. Further, the IC50 in series [1] (setting [8]) is 0.05 µM; in series [1] (setting [18]), 0.05 µM; in series [1] (setting [9]), 0.05 µM; in series [1] (setting [10]), 0.05 µM; in series [2] (setting [11]), 1 µM; in series [2] (setting [12]) it was 1 µM. The IC50 in series [2] (setting [19]) was 1 µM; in series [2] (setting [13]), 1 µM; in the series “in vitro [3]” it was more than 20 µM; with primary rat microglia [6], more than 20 µM; in “in vitro [7]” (Table 3) it was more than 20 µM; in the series “in vitro [7]” (cFib assay) it was more than 20 µM. The inhibition at 10 µM is 95% in series [1], 73% in series [2] (48 h), more than 50% in series [5] (setting [20]) and more than 50% in series [5] (setting [15]). For the same compound, the “Fibrin % cell toxicity” value in the series with primary rat microglia [4] is recorded as 1%. For the same compound, the “Quadrant (FIG. 5b)” value in series [5] (setting [14]) is listed as “Q2”; in series [5] (Table 1, screen at 10 μM), “Q2”; in series [5] (Table 3, screen at 10 μM) it was “Q2”; in series [5] (setting [17]) it was “Q2”. The “LPS % cell toxicity” value in the series on primary rat microglia [6] is 1%.

In the case of `CC(=O)O[C@]1(C(C)=O)CC[C@H]2[C@@H]3C=C(Cl)C4=CC(=O)CC[C@]4(C)[C@H]3CC[C@@]21C` [Chlormadinone acetate, reference compound], the inhibition at 10 µM in series [1] was 72%; in series [2] (48 h), 43%; in series [5] (setting [15]) it was more than 50%; in series [5] (setting [16]) it was more than 50%. The IC50 (in series [2] (setting [11]); in series [2] (setting [12]); in series [2] (setting [13]); in the series “in vitro [3]”; in “in vitro [7]” (cFib assay)) was more than 20 µM each time. The “Fibrin % cell toxicity” value in the series with primary rat microglia [4] was found to be 1%. The “Quadrant (FIG. 5b)” value is recorded as “Q3” in series [5] (setting [14]); “Q3” in series [5] (Table 1, screen at 10 μM); “Q3” in series [5] (setting [17]). Moreover, in the series with primary rat microglia [6], the “LPS % cell toxicity” value is given as 0%.

Turning to `CCOC(=O)O[C@]1(C(=O)COC(=O)CC)CC[C@H]2[C@@H]3CCC4=CC(=O)C=C[C@]4(C)[C@H]3[C@@H](O)C[C@@]21C` [Prednicarbate, reference compound], in series [1], the “Fibrin Selectivity” value turned out to be 8510. In addition, in series [1], the “Fibrin Selectivity (LOG10)” value amounted to 3.93. In addition, the IC50 in series [1] (setting [8]) is 0.002 µM; in series [1] (setting [18]) it was 0.002 µM; in series [1] (Table 6, read-out: Fibrin IC50 (uM) (Suppl. Table 7)), 0.002 µM; in series [1] (setting [9]), 0.002 µM; in series [1] (setting [10]), 0.002 µM; in series [2] (setting [11]) it was more than 20 µM. The IC50 was more than 20 µM in series [2] (setting [12]); more than 20 µM in series [2] (setting [19]); more than 20 µM in series [2] (Table 6, read-out: LPS IC50 (uM) (Suppl. Table 7)); more than 20 µM in series [2] (setting [13]); more than 20 µM in “in vitro [3]”; more than 20 µM with primary rat microglia [6]. In addition, the IC50 with primary rat microglia [6] (Table 6) is more than 20 µM; in “in vitro [7]” (Table 3), more than 20 µM; in the series “in vitro [7]” (cFib assay), more than 20 µM; in the series “in vitro [7]” (cFib assay, Table 6), more than 20 µM. The inhibition at 10 µM in series [1] is 61%; in series [2] (48 h), 73%; in series [5] (setting [20]) it was more than 50%; in series [5] (setting [15]), more than 50%. In the series with primary rat microglia [4], the “Fibrin % cell toxicity” value is on record as 1%. Moreover, the “Quadrant (FIG. 5b)” value in series [5] (setting [14]) was “Q2”; in series [5] (Table 1, screen at 10 μM), “Q2”; in series [5] (Table 3, screen at 10 μM), “Q2”; in series [5] (microglia HTS, Table 6), “Q2”; in series [5] (setting [17]) it was “Q2”. The “LPS % cell toxicity” value with primary rat microglia [6] is given as 1%.

As for `C=N[C@@H](C(=O)N[C@@H]1C(=O)N2[C@@H]1SC(C)(C)[C@@H]2C(=O)O)c1ccccc1` [Metampicillin sodium, reference compound], the IC50 in series [1] (setting [8]) was 20 µM; in series [1] (setting [9]) it was 20 µM; in series [1] (setting [10]) it was 20 µM; in series [2] (setting [11]), more than 20 µM; in series [2] (setting [12]), more than 20 µM; in series [2] (setting [13]), more than 20 µM. The IC50 in the series “in vitro [3]” and in the series “in vitro [7]” (cFib assay) was more than 20 µM each time. Also, the inhibition at 10 µM in series [1] was 68%; in series [2] (48 h) it was 35%; in series [5] (setting [15]), more than 50%; in series [5] (setting [16]), more than 50%. In addition, the “Fibrin % cell toxicity” value in the series on primary rat microglia [4] came to 1%. In addition, the “Quadrant (FIG. 5b)” value is given as “Q3” in series [5] (setting [14]); “Q3” in series [5] (Table 1, screen at 10 μM); “Q3” in series [5] (setting [17]). For the same compound, in the series on primary rat microglia [6], the “LPS % cell toxicity” value was found to be 0%.
